This note sets out measurements from ChEMBL document CHEMBL6074662, “Antibacterial, Antibiofilm, and Anti-inflammatory Effects of a Novel Thrombin-Derived Peptide in Sepsis Models: Insights into Underlying Mechanisms” (J Med Chem, 2024).

Series [1] has as its system Staphylococcus aureus. The series can be described thus: Antibacterial activity against methicillin-resistant Staphylococcus aureus CCARM 3090 incubated for 24 hrs by CLSI based broth microdilution method. The class given is functional. A general note: In broth dilution the organism is exposed to a series of concentrations in liquid medium.
Series [2] concerns Escherichia coli. The series can be described thus: Antibacterial activity against Escherichia coli KCTC 1682 incubated for 24 hrs by CLSI based broth microdilution method. The series is classed as functional.
The subject of series [3] is Pseudomonas aeruginosa. In words: Antibacterial activity against multidrug-resistant Pseudomonas aeruginosa CCARM 2095 incubated for 24 hrs by CLSI based broth microdilution method. The class given is functional.
Series [4] is described as follows: Effect on secondary structure of drug in LPS assessed as formation of left-handed alpha-helical conformation at 150 uM by CD analysis. The class given is physicochemical.
In series [5] the test system is Escherichia coli. In words: Induction of cytoplasmic membrane depolarization in Escherichia coli KCTC 1682 at MIC measured for 500 secs by diSC3-5 dye based analysis relative to control. The note with it: time 500 sec; 0.1389 h. The class given is functional.
The subject of series [6] is Escherichia coli. In words: Induction of inner membrane permeabilization in Escherichia coli KCTC 1682 at MIC by PI staining based flow cytometry (reference value: 1.51 %). The series is classed as functional.
In series [7] the test system is Escherichia coli. The series can be described thus: Induction of inner membrane permeabilization in Escherichia coli KCTC 1682 at 0.5 times MIC by PI staining based flow cytometry (reference value: 1.51 %). The class given is functional. Background: In flow cytometry, cells or beads pass a laser one at a time.
For series [8], the system named is Staphylococcus aureus. In words: Synergistic antibacterial activity against methicillin-resistant Staphylococcus aureus CCARM 3089 assessed as fractional inhibitory concentration index incubated for 24 hrs in presence of Chloramphenicol by broth microdilution method. The class given is functional.
For series [9], the system named is Pseudomonas aeruginosa. In words: Synergistic antibacterial activity against multi-drug resistant Pseudomonas aeruginosa CCARM 2095 incubated for 24 hrs in presence of Ciprofloxacin by broth microdilution method. The class given is functional.
Series [10] concerns Pseudomonas aeruginosa. The series can be described thus: Synergistic bactericidal activity against multidrug-resistant Pseudomonas aeruginosa CCARM 2095 at 0.5 to 2 uM incubated for 12 hrs in presence of oxacillin by time-kill assay. The class given is functional, organism-based. To be noted: dose 0.5-2 µM.
The subject of series [11] is RAW264.7. The series can be described thus: Anti-inflammatory activity in mouse RAW264.7 cells assessed as decrease in LPS-induced NO production upto 10 uM pretreated for 1 hr followed by LPS treatment for 16 hrs by Griess assay. The class given is functional, cell-based. The note with it: time 17.0 hrs.
Series [12] deals with RAW264.7. The series can be described thus: Anti-inflammatory activity in mouse RAW264.7 cells assessed as decrease in LPS-induced IL-6 level at 2.5 uM pretreated for 1 hr followed by LPS treatment for 16 hrs by ELISA relative to control. The series is classed as functional. To be noted: time 17 hrs.
Series [13] has as its system RAW264.7. In words: Anti-inflammatory activity in mouse RAW264.7 cells assessed as decrease in LPS-induced ROS production at 5 uM pretreated for 1 hr followed by LPS treatment for 16 hrs by DCFDA staining based analysis relative to control. The series is classed as functional.
The nature of series [14]: Cytotoxicity against mouse RAW264.7 cells assessed as cell survival at 10 to 20 uM incubated for 16 hrs by WST-8 assay relative to control. The series is classed as toxicity, cell-based. To be noted: dose 10-20 µM, read-out: Survival. (Tetrazolium assays rely on reduction of a dye to a coloured formazan, in cell work by metabolically active cells.)
Series [15] can be described thus: Cytotoxicity against mouse RAW264.7 cells assessed as cell viability at 30 uM incubated for 16 hrs by WST-8 assay relative to control. The note with it: read-out: Activity. The class given is toxicity, cell-based.
In series [16] the test system is Lipopolysaccharide (LPS). In words: Displacement of BODIPY-TR-cadaverine from Escherichia coli 0111:B4 LPS incubated for 30 mins by fluorescence based assay. To be noted: dose <= 32.0 µM.
In series [17] the test system is Lipopolysaccharide (LPS). The series can be described thus: Displacement of BODIPY-TR-cadaverine from Escherichia coli 0111:B4 LPS at 8 uM incubated for 30 mins by fluorescence based assay relative to control.
Series [18] deals with Lipopolysaccharide (LPS). In words: Displacement of BODIPY-TR-cadaverine from Escherichia coli 0111:B4 LPS at 16 uM incubated for 30 mins by fluorescence based assay relative to control.
For series [19], the target named is Toll-like receptor 4 (Homo sapiens) (UniProt O00206). The series can be described thus: Inhibition of LPS-induced human TLR4 activation expressed in HEK-Blue hTLR4 cells assessed as decrease in SEAP activity at 12.5 uM pretreated for 1 hr followed by LPS treatment for 16 hrs by absorbance based assay relative to control. The series is classed as cell-based. To be noted: time 17.0 hrs.

For the next series, the species on record is Homo sapiens. The series can be described thus: Binding affinity to CM5 chip-immobilized TLR4/MD2 (unknown origin) complex by SPR analysis.
The next series relates to Acinetobacter baumannii. In words: Antibacterial activity against carbapenem-resistant Acinetobacter baumannii-induced sepsis shock in ICR mouse model assessed as bacterial growth inhibition in liver at 1 mg/kg, ip pretreated with compound for 1 hr followed by bacterial infection measured after 16 hrs relative to control. The series is classed as functional. The note with it: time 17 hrs.

Series [20] concerns Mus musculus. In words: Antiseptic activity in sepsis shock ICR mouse model infected with carbapenem-resistant Acinetobacter baumannii assessed as decrease in endotoxin level in serum at 1 mg/kg, ip pretreated with compound for 1 hr followed by bacterial infection measured after 16 hrs relative to control. The class given is functional. The arrangement: scale not given: the % may be the effect or the level left. To be noted: time 17 hrs.

The test system of series [21] is Mus musculus. In words: Antiseptic activity in sepsis shock ICR mouse model infected with carbapenem-resistant Acinetobacter baumannii assessed as decrease in IL-6 level in serum at 1 mg/kg, ip pretreated with compound for 1 hr followed by bacterial infection measured after 16 hrs relative to control. The class given is functional. On the set-up: scale not given: the % may be the effect or the level left. The note with it: time 17 hrs.

The subject of series [22] is Mus musculus. In words: Antiseptic activity in sepsis shock ICR mouse model infected with carbapenem-resistant Acinetobacter baumannii assessed as recovery of neutrophil infiltration in lungs at 1 mg/kg, ip pretreated with compound for 1 hr followed by bacterial infection measured after 16 hrs by H and E staining based analysis. The class given is functional, organism-based. The note with it: time 17.0 hrs.

Series [23] concerns Mus musculus. In words: Antiseptic activity in sepsis shock ICR mouse model infected with carbapenem-resistant Acinetobacter baumannii assessed as reduction in bacterial count in lungs at 1 mg/kg, ip pretreated with compound for 3 hrs followed by bacterial infection measured after 16 hrs relative to control. The series is classed as functional. On the set-up: scale not given: the % may be the effect or the level left. The note with it: time 19 hrs.

Series [24] deals with Mus musculus. The series can be described thus: Antiseptic activity in sepsis shock ICR mouse model infected with carbapenem-resistant Acinetobacter baumannii assessed as reduction in bacterial count in liver at 1 mg/kg, ip pretreated with compound for 1 hr followed by bacterial infection measured after 16 hrs relative to control. The class given is functional. To be noted: time 17 hrs. The arrangement: scale not given: the % may be the effect or the level left.

In series [25] the test system is Mus musculus. In words: Antiseptic activity in sepsis shock ICR mouse model infected with carbapenem-resistant Acinetobacter baumannii assessed as reduction in bacterial count in liver at 1 mg/kg, ip pre-infected with bacteria followed by compound administration 3 hrs post-infection measured after 16 hrs relative to control. The series is classed as functional. The arrangement: scale not given: the % may be the effect or the level left.

Series [26] concerns Mus musculus. In words: Antiseptic activity in sepsis shock ICR mouse model infected with carbapenem-resistant Acinetobacter baumannii assessed as reduction in bacterial count in kidney at 1 mg/kg, ip pretreated with compound for 1 hr followed by bacterial infection measured after 16 hrs relative to control. To be noted: time 17 hrs. The series is classed as functional. On the set-up: scale not given: the % may be the effect or the level left.

The subject of series [27] is Mus musculus. In words: Antiseptic activity in sepsis shock ICR mouse model infected with carbapenem-resistant Acinetobacter baumannii assessed as reduction in bacterial count in kidney at 1 mg/kg, ip pretreated with compound for 3 hrs followed by bacterial infection measured after 16 hrs relative to control. The class given is functional. On the set-up: scale not given: the % may be the effect or the level left. The note with it: time 19 hrs.

Series [28] deals with Mus musculus. The series can be described thus: Antiseptic activity in sepsis shock ICR mouse model infected with carbapenem-resistant Acinetobacter baumannii assessed as reduction in serum IL-6 level at 1 mg/kg, ip pretreated with compound for 3 hrs followed by bacterial infection measured after 16 hrs relative to control. The class given is functional. On the set-up: scale not given: the % may be the effect or the level left. To be noted: time 19 hrs.

The subject of series [29] is Escherichia coli. In words: Antibacterial activity against Escherichia coli KCTC 1682 assessed as zone of clearance incubated for 4 hrs in presence of alpha-chymotrypsin by radical diffusion assay. The class given is functional, organism-based.
Series [30] concerns Escherichia coli. In words: Antibacterial activity against Escherichia coli KCTC 1682 assessed as zone of clearance incubated for 4 hrs in presence of proteinase K by radical diffusion assay. The series is classed as functional, organism-based.
Series [31] deals with Staphylococcus aureus. In words: Synergistic bactericidal activity against methicillin-resistant Staphylococcus aureus CCARM 3089 at 0.5 to 2 uM incubated for 12 hrs in presence of oxacillin by time-kill assay. The series is classed as functional, organism-based. The note with it: dose 0.5-2 µM.

The source made the active and inactive calls. Bounds are passed on as bounds.

Sequence of Toll-like receptor 4 (Homo sapiens) (O00206 whole entry): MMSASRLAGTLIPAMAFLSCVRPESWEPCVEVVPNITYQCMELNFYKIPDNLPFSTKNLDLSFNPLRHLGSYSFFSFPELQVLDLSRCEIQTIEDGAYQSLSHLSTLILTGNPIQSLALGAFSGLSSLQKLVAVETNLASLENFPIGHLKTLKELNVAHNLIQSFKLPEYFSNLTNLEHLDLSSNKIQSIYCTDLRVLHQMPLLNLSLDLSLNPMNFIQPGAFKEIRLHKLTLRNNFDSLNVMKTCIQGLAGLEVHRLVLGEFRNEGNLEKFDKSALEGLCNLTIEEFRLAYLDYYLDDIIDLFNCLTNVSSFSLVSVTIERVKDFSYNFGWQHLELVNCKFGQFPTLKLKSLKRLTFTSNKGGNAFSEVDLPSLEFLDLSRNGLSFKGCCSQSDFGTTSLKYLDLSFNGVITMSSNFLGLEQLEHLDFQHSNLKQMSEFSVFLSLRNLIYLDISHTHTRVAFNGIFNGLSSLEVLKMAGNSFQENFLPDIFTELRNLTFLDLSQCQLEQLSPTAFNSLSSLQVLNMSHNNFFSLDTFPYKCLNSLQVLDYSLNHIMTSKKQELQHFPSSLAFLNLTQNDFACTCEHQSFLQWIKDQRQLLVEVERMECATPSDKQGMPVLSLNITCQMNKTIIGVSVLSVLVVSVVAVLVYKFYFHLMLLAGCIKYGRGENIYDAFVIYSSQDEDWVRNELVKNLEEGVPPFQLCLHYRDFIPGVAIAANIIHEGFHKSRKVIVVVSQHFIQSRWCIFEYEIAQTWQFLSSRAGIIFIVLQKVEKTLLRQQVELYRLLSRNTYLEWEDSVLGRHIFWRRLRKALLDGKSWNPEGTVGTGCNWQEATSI

In the case of H-GVFRLKKWLKKVKKWGK-NH2, the minimal inhibitory concentration (MIC) (commonly the smallest concentration in the dilution series that meets the test's criterion for growth inhibition) against Staphylococcus aureus [1] was found to be 8 µM; with Escherichia coli [2] it was 16 µM; in the series on Pseudomonas aeruginosa [3], 8 µM; with Pseudomonas aeruginosa [9] it was 4 µM. The Activity entry in series [4] is “Active”; in the series on Escherichia coli [5], roughly 100%; in the series on Escherichia coli [6], roughly 100%; in the series with Escherichia coli [7], roughly 100%; in the series on Lipopolysaccharide (LPS) [16] it was “Dose-dependent-effect; Activity Similar To Ll-37”; with Lipopolysaccharide (LPS) [17], 38%. Further, the Activity in the series on Lipopolysaccharide (LPS) [18] was 75%; in the series filed under Homo sapiens, 9.4 10^-7M; in the series with Mus musculus [20], greater than 56.1%; in the series on Mus musculus [21], 86.3%; in the series with Mus musculus [23], 98%; in the series with Mus musculus [24], 99.7%. The Activity in the series with Mus musculus [25] is 90.7%; with Mus musculus [26], 99.6%; in the series on Mus musculus [27], 98.5%; in the series on Mus musculus [28], 99.9%. Also, in the series on Staphylococcus aureus [8], the “fractional inhibitory concentration index (FICI)” value amounted to 0.563. In addition, the outcome with Pseudomonas aeruginosa [10], in the series with RAW264.7 [11] and in the series on Mus musculus [22] was Active. The inhibition (usually the change of the read-out against control, counted positive when it falls) at 2.5 µM with RAW264.7 [12] amounted to 98.5%. In addition, in the series with RAW264.7 [13], the inhibition at 5 µM came out at 51.1%. Besides, the viability at 16 h, up to 20 µM in series [14] is greater than 95%. In addition, the viability at 16 h, 30 µM in [15] was greater than 80%. Moreover, in [19], the inhibition was determined as 92.1%. In the series with Acinetobacter baumannii, the inhibition in vivo (usually how much of the control response was suppressed) at 1 mg/kg stood at 95.7%.

On to H-GVFRLKKWIKKVIKKWGK-NH2, for which the minimal inhibitory concentration (MIC) with Staphylococcus aureus [1] came to 8 µM; in the series with Escherichia coli [2] it was 16 µM; against Pseudomonas aeruginosa [3], 8 µM; with Pseudomonas aeruginosa [9], 4 µM. For the same substance, the outcome in the series with Escherichia coli [29] and in the series with Escherichia coli [30] was inactive. Moreover, the Activity in the series on Escherichia coli [5], with Escherichia coli [6] and in the series with Escherichia coli [7] was roughly 100% each time. Also, in the series with Staphylococcus aureus [8], the “fractional inhibitory concentration index (FICI)” value was 0.5. In the series on Staphylococcus aureus [31], the outcome was Active. In addition, the inhibition at 2.5 µM in the series on RAW264.7 [12] amounted to 28.6%. Besides, the inhibition at 5 µM in the series with RAW264.7 [13] was 40%. In addition, in series [14], the viability at 16 h, up to 20 µM was greater than 95%. Besides, the viability at 16 h, 30 µM in series [15] is greater than 80%.
